Blank lines part the entries; values can stand above or below the molecule they belong to.
Key:
[1] = biological target: T1, DR6 extracellular domain-FC chimera (Homo sapiens, UniProt O75509); test: ELISA binding of biotinylated angiocidin to plate-coated DR6 extracellular-Fc chimeric recombinant protein; conditions: for Blocking of binding of biotinylated angiocidin to DR6: 1 μg/ml biotinylated angiocidin, 50 μg/ml 5 mer, 10 μg/ml anti-DR6 IgG or 50 μg/ml unlabeled angiocidin
T1 construct: wells of a microtiter plate were coated with 100 ng of a DR6 extracellular-Fc chimeric recombinant protein overnight
T1 sequence (O75509 42-349 limits assumed): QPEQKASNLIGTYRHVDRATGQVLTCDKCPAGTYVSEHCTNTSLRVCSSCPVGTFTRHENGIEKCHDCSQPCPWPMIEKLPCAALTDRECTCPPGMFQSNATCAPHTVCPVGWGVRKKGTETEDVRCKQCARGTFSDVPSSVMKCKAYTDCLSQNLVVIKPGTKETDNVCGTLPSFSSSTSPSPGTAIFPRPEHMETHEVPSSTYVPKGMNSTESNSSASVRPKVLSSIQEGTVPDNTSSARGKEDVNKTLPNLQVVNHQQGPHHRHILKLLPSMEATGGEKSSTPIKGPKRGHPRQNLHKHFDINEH
Method: (§1) The next experiment was performed to characterize the binding of DR6 with angiocidin. Briefly, wells of a microtiter plate were coated with 100 ng of a DR6 extracellular-Fc chimeric recombinant protein overnight. Wells were then washed in PBS and blocked with 1% BSA. Blocked wells were incubated with shaking with 200 μl of PBS containing various concentrations of biotinylated angiocidin for one hour. Wells were than washed and incubated with shaking with a 1:10,000 dilution of a 1 mg/ml solution of streptavidin-HRP in PBS. Wells were washed 3 times in PBS and bound streptavidin HRP was detected by incubation of the wells with 100 μl of 3,3′,5,5′-tetramethylbenzidine (TMB) with shaking for 5 min. Reactions were stopped by the addition of 50 μl of 1 M HCl and the color read in an ELISA reader at 450 nm.
(§2) The next experiment was performed to further characterize the binding between DR6 and angiocidin. It was observed that the binding of angiocidin to DR6 was blocked with anti-DR6 IgG, 5 mer peptide, and unlabeled angiocidin. Wells contained either 1 μg/ml of biotinylated angiocidin alone or 50 μg/ml 5 mer, 10 μg/ml of anti-DR6 IgG or 50 μg/ml unlabeled angiocidin.

[2] = system: THP-1 cells; test: Differentiation marker expression (CD14, CD54, CD36) in THP-1 cells, flow cytometry; assay type: cell-based; conditions: for Leukemia cell differentiating activity, comparison of 5 mer, 20 mer and angiocidin / Upregulation of CD54 in THP-1 leukemia cells: FIGS. 8-11; for Upregulation of CD54 in THP-1 cells: after 24 hours incubation, FIG. 8
Method: FIG. 10 is an image showing the comparison between angiocidin, the 5 mer, and a 20 mer (F86-H105) […]; SEQ ID NO: 2 on the expression of CD14 and CD54. Briefly, THP-1 cells were grown in the presence of various concentrations of peptide overnight and then the cells were assayed by flow cytometry for expression of CD14 and CD54.
FIG. 11 is an image showing the comparison between the 20 mer, 5 mer and angiocidin on the expression of CD14 and CD54 up-regulation in THP-1 cells and two primary leukemia cells. Cells were treated with peptide at 10 ug/ml for 12 hours and CD14 and CD54 were measured by flow cytometry.
THP-1 cells were cultured in RPMI media for 24 hours containing no peptides or angiocidin or 2, 10 μg/ml of either angiocidin, 5 mer, peptide or a control peptide, r5 mer having the reverse sequence of the 5 mer. Marker expression was measured by flow cytometry.

[3] = system: three different leukemia cell lines; test: Cytokine upregulation in three leukemia cell lines; assay type: cell-based
Method: Experiments were also performed comparing the leukemia cell differentiating activity of the 5 mer, the 20 mer and angiocidin.

[4] = system: THP-1 cells; test: Binding of Alexa Fluor 488 labeled angiocidin to THP-1 cells, flow cytometry
Method: Experiments were performed to evaluate the interaction between DR-6 and angiocidin. […] Briefly, THP-1 cells were plated in 6 well dishes in serum-free media. Cells were untreated or treated for 30 min at 37° with either 2.5 μg/ml of Angiocidin labeled with Alexa Fluor 488 (Angio-488), Angio-448+10 μg/ml control rabbit IgG, Angio-488+10 μg/ml rabbit Anti-DR6 IgG, Angio-488+10 μg/ml unlabeled Angiocidin. Cells were washed twice in PBS and the percent positive Angio-488 measured by flow cytometry.

[5] = biological target: T2, DR6 in whole extracts of THP-1 cells (Homo sapiens, UniProt O75509); test: Blot overlay of biotinylated angiocidin on SDS extracts of THP-1 cells; assay type: binding; conditions: 0.1 mg/ml biotinylated angiocidin, one hour
T2 construct: SDS detergent extracts of THP-1 cells were separated on SDS-PAGE and blotted onto PVD membranes; endogenous in cells; host or cells: THP-1 cells
T2 sequence (O75509 42-655): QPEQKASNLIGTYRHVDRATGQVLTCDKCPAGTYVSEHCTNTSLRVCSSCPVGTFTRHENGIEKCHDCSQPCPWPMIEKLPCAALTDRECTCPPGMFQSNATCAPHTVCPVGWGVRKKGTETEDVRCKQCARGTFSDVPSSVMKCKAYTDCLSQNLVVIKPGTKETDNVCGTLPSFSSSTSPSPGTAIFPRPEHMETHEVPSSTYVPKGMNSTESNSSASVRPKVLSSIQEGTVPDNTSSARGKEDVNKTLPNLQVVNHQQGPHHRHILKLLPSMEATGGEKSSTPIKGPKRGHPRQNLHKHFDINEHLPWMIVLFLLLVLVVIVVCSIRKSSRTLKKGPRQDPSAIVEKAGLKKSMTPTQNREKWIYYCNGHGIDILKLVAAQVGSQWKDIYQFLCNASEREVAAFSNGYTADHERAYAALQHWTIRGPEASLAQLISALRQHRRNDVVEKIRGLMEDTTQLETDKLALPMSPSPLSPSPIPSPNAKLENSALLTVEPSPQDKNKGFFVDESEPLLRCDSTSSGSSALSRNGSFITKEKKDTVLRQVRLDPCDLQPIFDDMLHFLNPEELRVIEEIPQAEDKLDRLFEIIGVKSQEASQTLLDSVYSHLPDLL
Method: Briefly, SDS detergent extracts of THP-1 cells were separated on SDS-PAGE and blotted onto PVD membranes. Membranes were washed in tris-buffered saline containing 0.1% Tween 20 detergent (TBS-T) and 1% BSA and incubated with 0.1 mg/ml of biotinylated angiocidin in the presence or absence of 10 μg/ml rabbit Anti-DR6 antibody. After incubation for one hour membranes were washed in TBS-T and incubated with 1:10,000 dilution of a 1 mg/ml solution of streptavidin HRP in PBS for 30 min. Membranes were then washed, treated with a chemiluminescent substrate for HRP and developed for chemiluminescence using X-ray film. In the panel on the right, recombinant DR6-Fc was used as the positive control.

[6] = biological target: T3, death receptor-6 (DR6) (Homo sapiens, UniProt O75509); test: Binding strength of DR6 for angiocidin compared with previously reported binding proteins
T3 sequence (O75509 42-655): T2 sequence (O75509 42-655)

[7] = system: THP-I leukemia cells; test: Blocking DR6 on THP-I leukemia cells: effect on the differentiating activity of angiocidin; assay type: cell-based; conditions: mediated by DR6
Source text: Additionally, the DR6 binding domain of angiocidin is located in a 5 amino acid sequence (ALKHR; SEQ ID NO: 1) present near the N-terminal domain of angiocidin. Accordingly, the 5 mer (ALKHR; SEQ ID NO: 1) is a potentially non-toxic alternative treatment of AML

[8] = biological target: T4, DR6 extracellular-Fc chimeric recombinant protein (UniProt O75509 42-349, limits assumed); test: competition ELISA on coated DR6 extracellular domain-Fc, 50 ug/ml 5 mer against 1 ug/ml biotinylated angiocidin
T4 construct: extracellular domain; also called DR6 extracellular domain-FC chimera; DR6-Fc; not shown: Fc part
T4 sequence (looked up): T1 sequence (O75509 42-349 limits assumed)
Method: as §1, with “nm. It was observed that angiocidin binds the extracellular domain of DR6 (DR6 extracellular domain-FC chimera) in vitro (FIG. 2).” for “nm.”
as §2

[9] = system: THP-1 cells; test: Angiocidin-mediated up-regulation of CD14 in THP-1 cells, flow cytometry; assay type: cell-based; conditions: 2.5 μg/ml Angiocidin plus 10 μg/ml rabbit anti-DR6 IgG or 0.10 μg/ml DR6-Fc, 24 hours, 1% fetal calf serum
Method: THP-1 cells were grown for 24 hours in RPMI containing 1% fetal calf serum (NT) or containing the following: 2.5 μg/ml Angiocidin, 0.10 μg/ml DR6-Fc, 2.5 μg/ml Angiocidin plus 0.10 μg/ml, DR6-Fc, 10 μg/ml rabbit IgG, 2.5 μg/ml Angiocidin plus 10 μg/ml rabbit IgG, 10 μg/ml rabbit anti-DR6 IgG, 2.5 μg/ml Angiocidin plus 10 μg/ml rabbit anti-DR6 IgG. Percent CD14 positive cells were measured by flow cytometry.

[10] = biological target: T4, DR6 extracellular-Fc chimeric …; test: not stated (opening statement of Example 1)

Blocking of binding of biotinylated angiocidin to DR6 [1]: blocked
Molecule: ALKHR [5 mer]
Leukemia cell differentiating activity, comparison of 5 mer, 20 mer and angiocidin [2]: nearly identical leukemia cell differentiating activities
Upregulation of CD54 in THP-1 leukemia cells [2]: upregulate CD54
Differentiation activity measured by upregulation of CD14, CD54, CD36 ([2]; THP-1 cells, RPMI, 24 hours, 2, 10 μg/ml): mimics the differentiation activity of angiocidin
Upregulation of CD54 in THP-1 cells [2]: upregulate CD54
Upregulation of cytokine panel [3]: upregulate a similar panel of cytokines

Molecule: Angio-488: Angiocidin labeled with Alexa Fluor 488 [reference compound]
Affinity for cell bound DR6 after labeling with Alexa Fluor 488 ([4]; inferred from competition by unlabeled angiocidin): did not alter its affinity for cell bound DR6

Molecule: FCTGIRVAHLALKHRQGKNH [20 mer, 20 mer peptide of the anti-tumor domain of angiocidin]
Leukemia cell differentiating activity, comparison of 5 mer, 20 mer and angiocidin [2]: nearly identical leukemia cell differentiating activities
Upregulation of CD54 in THP-1 leukemia cells [2]: upregulate CD54
Upregulation of cytokine panel [3]: upregulate a similar panel of cytokines

Binding of biotinylated angiocidin to the extracellular domain of DR6 ([1]; 100 ng DR6-Fc coated, various concentrations, one hour, read at 450 nm): binds the extracellular domain of DR6
Blocking of binding of biotinylated angiocidin to DR6 [1]: blocked
Molecule: angiocidin: protein originally isolated from lung carcinoma, receptor for thrombospondin-1, inhibitor of angiogenesis and tumor cell proliferation
Inhibition of binding of Angio-488 to THP-1 cells (percent positive Angio-488) ([4]; 2.5 μg/ml Angio-488 plus 10 μg/ml competitor, 30 min at 37°, serum-free media): competed with the binding of Angio-488
Binding of angiocidin to DR6 in whole extracts of THP-1 cells [5]: binds to DR6 in whole extracts of THP-1 cells
Leukemia cell differentiating activity, comparison of 5 mer, 20 mer and angiocidin [2]: nearly identical leukemia cell differentiating activities
Upregulation of CD54 in THP-1 leukemia cells [2]: upregulate CD54
Upregulation of CD54 in THP-1 cells [2]: upregulate CD54
Upregulation of cytokine panel [3]: upregulate a similar panel of cytokines
Binding strength of DR6 for angiocidin relative to other reported binding proteins and peptides [6]: more than 100 times
Differentiating activity on THP-I leukemia cells [7]: transforms THP-I leukemia cells into normal macrophage-like cells

binding result [8]: binds
B1: 5 mer (ALKHR peptide) (peptide)
peptide: ALKHR
notes: Five-residue peptide from angiocidin; also called Angio-pep; 5 mer peptide

B2: DR6-Fc: DR6 extracellular-Fc chimeric recombinant protein (protein)
chain: T1 sequence (O75509 42-349 limits assumed)
modifications: left off: a dimerising Fc or GST
notes: DR6 extracellular-Fc chimeric recombinant protein
Inhibition of angiocidin-mediated upregulation of CD14 (percent CD14 positive cells) [9]: inhibit the angiocidin-mediated upregulation of CD14

fold stronger binding than the other binding proteins and peptides previously reported for angiocidin [10]: > 100 times
B3: Angiocidin (ligand, UniProt P55036 1-377, looked up)
chain: MVLESTMVCVDNSEYMRNGDFLPTRLQAQQDAVNIVCHSKTRSNPENNVGLITLANDCEVLTTLTPDTGRILSKLHTVQPKGKITFCTGIRVAHLALKHRQGKNHKMRIIAFVGSPVEDNEKDLVKLAKRLKKEKVNVDIINFGEEEVNTEKLTAFVNTLNGKDGTGSHLVTVPPGPSLADALISSPILAGEGGAMLGLGASDFEFGVDPSADPELALALRVSMEEQRQRQEEEARRAAAASAAEAGIATTGTEDSDDALLKMTISQQEFGRTGLPDLSSMTEEEQIAYAMQMSLQGAEFGQAESADIDASSAMDTSEPAKEEDDYDVMQDPEFLQSVLENLPGVDPNNEAIRNAMGSLASQATKDGKKDKKEEDKK
modifications: Alexa Fluor 488 label (flow cytometry) or biotin label (ELISA, blot); sites not stated; also used unlabeled as competitor
notes: Labelled and unlabelled preparations are kept as one molecule
